The source of these data is patent US11077115B2, “Rorgamma modulators and uses thereof” (Genfit, priority 2017, dated 2021).

The target of test [1] is T1, RORγt ligand-binding domain (RORγt-LBD) (Homo sapiens, UniProt P51449).
T1 construct: 20 nM recombinantly expressed RORγ-LBD fused to GST
T1 sequence (P51449 269-508 limits assumed): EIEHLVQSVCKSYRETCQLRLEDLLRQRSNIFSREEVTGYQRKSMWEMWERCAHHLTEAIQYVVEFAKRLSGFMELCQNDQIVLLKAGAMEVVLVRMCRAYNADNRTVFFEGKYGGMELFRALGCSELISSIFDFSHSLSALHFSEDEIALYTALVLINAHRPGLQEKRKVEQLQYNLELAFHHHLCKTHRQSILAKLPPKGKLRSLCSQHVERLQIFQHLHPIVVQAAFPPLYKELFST
As to the kind of experiment: Time-resolved FRET (TR-FRET) RORγt coactivator assay (RIP140 peptide displacement). The format is biochemical. The conditions noted are these: ligand-dependent coactivator-RORγt binding. The gist of the method: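 GST-tagged RORγt-LBD (20 nM) with 30 nM biotinylated RIP140 peptide, 1 nM streptavidin-terbium and 20 nM d2-anti-GST in CHAPS buffer with DTT, EDTA, BSA; 1% DMSO. Compounds 0.3 nM–30 μM, 2 h dark, room temperature. Coactivator displacement lowers TR-FRET signal; IC50 (μM) and Emax (%) derived.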
For orientation: Time-resolved FRET reads energy transfer from a long-lived donor to a nearby acceptor.

The target of test [2] is T2, human RORγt (Homo sapiens, UniProt P51449).
T2 sequence (P51449 1-497 isoform P51449-2): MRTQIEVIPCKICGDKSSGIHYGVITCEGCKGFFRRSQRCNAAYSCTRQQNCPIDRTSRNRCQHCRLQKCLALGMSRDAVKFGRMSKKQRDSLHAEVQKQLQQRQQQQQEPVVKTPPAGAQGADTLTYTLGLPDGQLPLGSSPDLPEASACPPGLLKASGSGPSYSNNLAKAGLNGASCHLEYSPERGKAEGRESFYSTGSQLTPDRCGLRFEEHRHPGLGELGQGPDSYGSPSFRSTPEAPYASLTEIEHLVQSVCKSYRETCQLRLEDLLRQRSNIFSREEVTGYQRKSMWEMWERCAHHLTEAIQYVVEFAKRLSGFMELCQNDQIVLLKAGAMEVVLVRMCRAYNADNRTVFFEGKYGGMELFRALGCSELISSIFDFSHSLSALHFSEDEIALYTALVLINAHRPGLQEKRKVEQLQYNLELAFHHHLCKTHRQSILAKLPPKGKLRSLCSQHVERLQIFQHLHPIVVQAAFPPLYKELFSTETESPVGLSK
Kind of test: IL-17 secretion from EL4 murine lymphoma overexpressing human RORγt. The format is cell-based. The arrangement: V5-His (named only through the vector pcDNA3.1D/V5-His-TOPO); expressed in transfected cells. The conditions noted are these: IL-17 secretion inhibition in human RORγt-transfected EL4 Tcells, PMA/ionomycin stimulation. The protocol:
Murine EL-4 lymphoma cell line overexpressing human RORγt was used in this functional assay to assess compound ability to inhibit IL-17 cytokine secretion.
EL-4 cells are maintained in a standard culture medium RPMI supplemented with 10% fetal calf serum, 1% sodium pyruvate, 1% essential amino acids and 1% antibiotics at 37° C. in a humidified atmosphere of 5% CO2 and 95% air. Culture medium was changed every 2 days. EL4 cells were transfected with a plasmid encoding hRORγt (sequence identical to published sequence NM 001001523). […] Briefly, 1 μg of DNA/1 million cells was served to transfect EL-4 cells. Cell/DNA suspension was transferred into certified cuvette and the electroporation of RORγt plasmid was carried out using appropriate Nucleofector® program.
Cells were seeded in 96 well plates at a density of 150000 cells/well then treated with compounds of this invention at indicated concentrations and incubated for 24 hours at 37° C. in a humidified atmosphere of 5% CO2 and 95% air. EL-4 cells were pretreated with test compounds (RORγ modulators) and stimulated with PMA (10 ng/mL) and ionomycin (1 μM final concentration) in the presence of test compound concentrations for additional 24 h at 37° C. in a humidified atmosphere of 5% CO2 and 95% air. Subsequently, supernatants were collected (after centrifugation at 300 g for 10 minutes) to determine the concentrations of IL-17 by HTRF (CisBio, France) or ELISA (R&D Systems Europe) according to the manufacturer's protocols.

The target in test [3] is T2, human RORγt. Kind of test: RORE Luciferase/RORγt transactivation assay (IL-17 promoter luciferase reporter in COS-7 cells). The conditions noted are these: RORγt activity inhibition, luciferase activity in transfected COS-7 cells, 20 h. Also noted: V5-His (named only through the vector pcDNA3.1D/V5-His-TOPO); expressed in transfected cells; host or cells: COS-7 (monkey kidney). The format is cell-based. Put shortly: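 COS-7 cells co-transfected with human RORγt and luciferase reporter driven by 4.3 kb IL-17 promoter with CNS enhancer, seeded in serum-free, phenol red-free DMEM. Compounds added at 0.3% DMSO final; luciferase read by Steady-Glo luminescence. IC50 (μM) and Emax (%) reported.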
For orientation: Reporter assays use an easily measured gene product as a stand-in for the process of interest.

The test system of a further test is multiple sclerosis model. The conditions noted are these: administered by injection; cited from earlier work.
The next test relates to psoriasis model. The conditions noted are these: administered by injection; cited from earlier work.
The subject of test [4] is patients with moderate to severe psoriasis. The conditions noted are these: cited from earlier work.
[5] abbreviates: relative to placebo, patients with moderate to severe psoriasis.

Regarding `Cc1ccc(C(NC(=O)C2(c3cnc(N4CCS(=O)(=O)CC4)nc3)CC2)c2ccc(Cl)cc2Cl)o1` (stereo not drawn) [Cpd. 54, N-[(2,4-dichlorophenyl)(5-methylfuran-2-yl)methyl]-1-[2-(1,1-dioxo-1-thiomorpholin-4-yl)pyrimidin-5-yl]cyclopropane-1-carboxamide], the IC50 (in general, the concentration at which inhibition is half-maximal) was below 1000 nM in test [1], 100 to 1000 nM on human RORγt [2] and 100 to 1000 nM against human RORγt [3].

Turning to `CC(C)CC(NC(=O)C1(c2ccc(N3CCS(=O)(=O)CC3)cc2)CC1)c1ccccc1N1CCCCC1` (stereo not drawn) [Cpd. 59, 1-[4-(1,1-dioxo-1-thiomorpholin-4-yl)phenyl]-N-[3-methyl-1-[2-(piperidin-1-yl)phenyl]butyl]cyclopropane-1-carboxamide], the IC50 in test [1] was in the range of 100 to 1000 nM; against human RORγt [2], 100 to 1000 nM; against human RORγt [3], 1000 to 10000 nM.

On to `Cc1ccc(C(NC(=O)C2(c3ccc(N4CCS(=O)(=O)CC4)cc3)CC2)c2ccccc2N2CCCCC2)o1` (stereo not drawn) [Cpd. 60, 1-[4-(1,1-dioxo-1-thiomorpholin-4-yl)phenyl]-N-[(5-methylfuran-2-yl)[2-(piperidin-1-yl)phenyl]methyl]cyclopropane-1-carboxamide], for which the IC50 in test [1] was below 1000 nM; on human RORγt [2], below 1000 nM; at human RORγt [3], 100 to 1000 nM.

With `Cc1ccc(C(NC(=O)C2(c3ccc(N4CCS(=O)(=O)CC4)cc3)CC2)c2ccc(Cl)o2)c(C)c1` (stereo not drawn) [Cpd. 66, N-[(5-chlorofuran-2-yl)(2,4-dimethylphenyl)methyl]-1-[4-(1,1-dioxo-1-thiomorpholin-4-yl)phenyl]cyclopropane-1-carboxamide], the IC50 in test [1] is below 1000 nM; at human RORγt [2], below 1000 nM; against human RORγt [3] it was below 100 nM.

For `Cc1ccc(C(NC(=O)C2(c3ccc(N4CCS(=O)(=O)CC4)c(C)n3)CC2)c2ccc(C)o2)c(C)c1` (stereo not drawn) [Cpd. 71, N-[(2,4-dimethylphenyl)(5-methylfuran-2-yl)methyl]-1-[5-(1,1-dioxo-1-thiomorpholin-4-yl)-6-methylpyridin-2-yl]cyclopropane-1-carboxamide], the IC50 in test [1] is below 1000 nM; at human RORγt [2] it was 100 to 1000 nM; against human RORγt [3] it was below 100 nM.

Regarding `CC(=O)Nc1nc(C)c(S(=O)(=O)Nc2ccc(C(O)(C(F)(F)F)C(F)(F)F)cc2)s1` [SR1001], the “efficacy in multiple sclerosis model” value in the test on multiple sclerosis model was “efficacious”.

Regarding `Cc1ccc([C@@H](NC(=O)Cc2ccc3oc([C@@H](O)c4c(C)noc4C)cc3c2)c2ccccc2)c(C)c1` [TMP778], the “efficacy in psoriasis model” value in the test on psoriasis model is recorded as “efficacious”.

Turning to `CCS(=O)(=O)c1ccc(CNC(=O)c2cnc3c(c2)CN(C[C@H]2CC[C@H](C(F)(F)F)CC2)[C@H]3C(C)C)nc1` [VTP-43742], in test [4] (350 mg dose group), the “reduction in the Psoriasis Area Severity Index (PASI) score relative to placebo” value is 24%. The “placebo-adjusted PASI score reduction” value in test [4] (700 mg dose group) is 30%. In test [4] (setting [5]), the “Psoriasis Area Severity Index (PASI) score” value is listed as “reduced” and the “plasma IL-17 levels” value is “reduced”.
